This is an account of results in US12466840B2, “Small molecule inhibitors of KRAS proteins” (Merck Sharp & Dohme LLC, priority 2023, dated 2025).

Read-outs that look alike come from different tables or passages of the source.

The target of assay [1] is KRAS Q61H (Homo sapiens (Human), UniProt P01116, Q61H). Kind of assay: SOS-catalyzed nucleotide exchange assay (GNE), KRAS Q61H. It is filed as biochemical. As to conditions: TR-FRET, 60 min preincubation. An excerpt:
(§1) Procedure for SOS-Catalyzed Nucleotide Exchange Assay for KRAS-WT, G12C/D/V/A/R/S, G13D, Q61H, HRAS-WT, and NRAS-WT
(§2) Recombinant KRAS-G12C protein used in this assay has an additional triple mutation (C51S/C80L/C118S). Whereas KRAS-WT, G12D/V/A/S/R, G13D, Q61H, HRAS and NRAS are in context of their WT protein sequence background. Specifically, the SOS-catalyzed nucleotide exchange assay utilizes a preformed TR-FRET complex containing a specific biotinylated RAS protein (KRAS-WT, G12C/V/D/A/S/R, G13D, Q61H, HRAS-WT, NRAS-WT; described above) with Bodipy-GDP, and Terbium-streptavidin. Compounds are preincubated with this complex for 60 minutes. Subsequently, recombinant human SOS protein and unlabeled GTP are added to initiate the exchange reaction. Small molecule inhibitors stabilize the Bodipy-GDP complex whereas the untreated protein rapidly exchanges Bodipy-GDP for unlabeled GTP resulting in reduced TR-FRET signal.
(§3) To assemble the preformed TR-FRET complexes, each biotinylated RAS protein is diluted to 2 μM in an EDTA Buffer (20 mM HEPES pH 7.5, 50 mM sodium chloride, 10 mM EDTA, and 0.01% Tween) and incubated at room temperature for one hour. This mixture is then further diluted to 90 nM in an Assay Buffer (20 mM HEPES pH 7.5, 150 mM sodium chloride, 10 mM magnesium chloride, and 0.005% Tween) containing 15 nM of Terbium-Streptavidin (Invitrogen, catalog #PV3577) and 900 nM of Bodipy-GDP (Invitrogen, catalog #G22360) and incubated at room temperature for six hours. It should be noted that this preformed TR-FRET complex for each of the RAS protein were made ahead of time, aliquoted and stored at −80° C. until the day of the experiment.
(§4) Each test compound (10 mM stock in DMSO) is diluted in DMSO to make a final-10-point, 3-fold dilution and is acoustically dispensed into a 384-well assay plate (Corning, catalog #3820) using an Echo 550 (Labcyte). Each well of the assay plate receives 3 μL of a specific 3×RAS preformed TR-FRET complex and 3 μL of Assay Buffer and is incubated at room temperature for 60 minutes (preincubation time). Each well then receives 3 μL of 3× recombinant human SOS protein and GTP (Sigma, G8877) in Assay Buffer and is incubated at room temperature for 30 minutes (G13D), 60 minutes (KRAS WT/G12C/D, H/NRAS) or 90 minutes for G12A/R/S/V and Q61H. The final reaction in each well of 9 μL consists of 3 mM GTP, specific Ras and SOS proteins in the following concentrations: KRAS-G12C/SOS=3 nM/40 nM, KRAS-WT and G12D/SOS=1 nM/40 nM, KRAS-G12V/SOS=1.25 nM/160 nM, KRAS-G12A/S/SOS=1 nM/160 nM, KRAS-G12R/SOS=1 nM/320 nM, KRAS-Q61H/SOS=1 nM/320 nM, KRAS-G13D/SOS=1.25 nM/[…], HRAS-WT and NRAS-WT=1.25 nM/40 nM.
(§5) The time-resolved fluorescence resonance energy transfer (TR-FRET) signal is measured on an Envision (PerkinElmer) plate reader: Excitation filter=340 nm; emission1=495 nm; emission2=520 nm; dichroic mirror=D400/D505; delay time=[…]. The signal of each well is determined as the ratio of the emission at 520 nm to that at 495 nm. Percent effect of each well is determined after normalization to control wells containing DMSO (no effect) or a saturating concentration of inhibitor (max effect). The apparent effect as a function of compound concentration is fit to a four-parameter logistic equation.

Assay [2] deals with KRAS G12A (Homo sapiens (Human), UniProt P01116, G12A). Kind of assay: SOS-catalyzed nucleotide exchange assay (GNE), KRAS G12A. It is filed as biochemical. As to conditions: TR-FRET, 60 min preincubation.
Chain of KRAS G12A (P01116 other isoform, or with tags, fused parts or gaps G12A (already in the parent)): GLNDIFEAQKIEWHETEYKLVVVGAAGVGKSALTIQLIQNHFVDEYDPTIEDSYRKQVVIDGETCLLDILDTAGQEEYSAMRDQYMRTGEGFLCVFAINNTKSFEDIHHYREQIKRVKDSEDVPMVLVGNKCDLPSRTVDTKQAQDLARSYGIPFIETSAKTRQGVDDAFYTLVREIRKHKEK
Source text: as §1, §2, §3, §4, §5

Assay [3] concerns SW620 cells (homozygous KRAS-G12V). The experiment in a line: Cellular phospho-ERK assay, SW620 cells. It is filed as cell-based. The settings on record: p-ERK vs. total ERK, read-out: SW620 pERK IC50. Here is the method: Procedure for Cellular Phospho-ERK Assay in KRAS Wild Type and Mutant (G12D, G12V) Cell Lines
MKN-1 cells (JCRB JCRB0252) containing amplified wild-type KRAS, were cultured in growth medium that contains RPMI 1640-GlutaMAX™-I (ThermoFisher Scientific 61870) containing 10% heat inactivated fetal bovine serum (ThermoFisher Scientific 10091148), 1 mM sodium pyruvate and 10 mM HEPES. AsPC-1 cells (ATCC® CRL-1682™), containing homozygous KRAS-G12D activating mutation, were cultured in T150 flask in growth medium (RPMI medium 1640-GlutaMAX™-I (ThermoFisher Scientific 61870) containing 10% fetal bovine serum (ThermoFisher Scientific 10091148)). SW620 cells (ATCC® CRL-227™) containing homozygous KRAS-G12V activating mutation, were cultured in growth medium that contains RPMI 1640-GlutaMAX™-I (ThermoFisher Scientific 61870) containing 10% heat inactivated fetal bovine serum (ThermoFisher Scientific 10091148).
Cells for the assay were harvested in growth medium after TrypLE (ThermoFisher scientific 12604021) digestion and were seeded in a 384-well collagen coated cell culture plate (Corning 356702) at a density of 10,000-15,000 cells/[…]/well, and incubated at 37° C., 5% CO2 overnight. The compound (with 10 mM stock concentration) dose-response titrations were prepared [30 μM final ERK detection assay concentration and 1:3 dilutions, 10-point dose response] and appropriate amounts (270 nL) of test compounds were dispensed in a 384-well intermediate plate using an Echo 550 liquid handler. 30 μL/well of RPMI medium 1640-GlutaMAX™-I was added to the intermediate plate and the contents of the intermediate plate (10 μL/well) were then transferred to the 384-well collagen coated cell culture plate, which was incubated at 37° C., 5% CO2 for 2 h. After removal of medium from the collagen coated cell culture plate, cells were lysed in lysis buffer from Alpha SureFire® Ultra™ Multiplex p-ERK and total ERK assay kit (PerkinElmer MPSU-PTERK) containing Halt™ Protease and Phosphatase inhibitor cocktail (ThermoFisher Scientific 78446) at room temperature with constant shaking at 300 rpm for 30 minutes. The cell lysates were then transferred to an OptiPlate-384 plate (PerkinElmer 6005620), and the phosphorylation of ERK (p-ERK) and total ERK levels were detected by Alpha SureFire® Ultra™ Multiplex p-EEK kit and total ERK assay kit (PerkinElmer MPSU-PTERK) following the manufacturer's protocol. Assay plates were read on a EnVision Multimode Plate Reader (PerkinElmer), and the ratio of p-ERK vs. total ERK in each well was used as the final readout. Dose response curves were analyzed using a 4-parameter logistic model to calculate IC50 values using Spotfire software.

Chain of KRAS Q61H (P01116 other isoform, or with tags, fused parts or gaps Q61H (already in the parent)): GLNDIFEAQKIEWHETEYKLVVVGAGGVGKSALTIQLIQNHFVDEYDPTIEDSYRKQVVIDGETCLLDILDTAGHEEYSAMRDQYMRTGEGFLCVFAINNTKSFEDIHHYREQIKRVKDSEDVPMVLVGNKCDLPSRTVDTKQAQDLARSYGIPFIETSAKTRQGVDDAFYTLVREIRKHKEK

On to `F/C=C1/CN2CCC[C@@]2(COc2nc3c4c(nc(-c5c(C6CC6)c(Cl)cc6[nH]ncc56)c(F)c4n2)OC[C@@H]2COCCCN32)C1` [Ex-1, (8aS)-5-(6-chloro-5-cyclopropyl-1H-indazol-4-yl)-4-fluoro-2-(((S,Z)-2-(fluoromethylene)tetrahydro-1H-pyrrolizin-7a(5H)-yl)methoxy)-8a,9,12,13-tetrahydro-8H,11H-7,10-dioxa-1,3,6,13a-tetraazanaphtho[1,8-ab]heptalene], for which the concentration for half-maximal inhibition (IC50) in assay [1] is 1.4 nM; in assay [2], less than 0.69 nM; in assay [3] (2 h), 2.6 nM.
For the compound `CCc1c(F)ccc2cc3[nH]ncc3c(-c3nc4c5c(nc(OC[C@@]67CCCN6C[C@H](F)C7)nc5c3F)N3CCCOC[C@H]3CO4)c12` [Ex-2, (8aS)-5-(5-ethyl-6-fluoro-1H-benzo[f]indazol-4-yl)-4-fluoro-2-(((2R,7aS)-2-fluorotetrahydro-1H-pyrrolizin-7a(5H)-yl)methoxy)-8a,9,12,13-tetrahydro-8H,11H-7,10-dioxa-1,3,6,13a-tetraazanaphtho[1,8-ab]heptalene], the IC50 was 1.2 nM in assay [1], less than 0.69 nM in assay [2] and 2.4 nM in assay [3] (2 h).
In the case of `Fc1c(-c2c(C3CC3)c(Cl)cc3[nH]ncc23)nc2c3c(nc(OC[C@@]45CCCN4C[C@H](F)C5)nc13)N1CCCOC[C@H]1CO2` [Ex-3, (8aS)-5-(6-chloro-5-cyclopropyl-1H-indazol-4-yl)-4-fluoro-2-(((2R,7aS)-2-fluorotetrahydro-1H-pyrrolizin-7a(5H)-yl)methoxy)-8a,9,12,13-tetrahydro-8H,11H-7,10-dioxa-1,3,6,13a-tetraazanaphtho[1,8-ab]heptalene], the half-inhibitory concentration (IC50) in assay [3] (Homo sapiens, SW-620, 2 h) was 3.9 nM.
As for `CCc1c(F)ccc2cc3[nH]ncc3c(-c3nc4c5c(nc(OC[C@@]67CCCN6C/C(=C\F)C7)nc5c3F)N3CCCOC[C@H]3CO4)c12` [Ex-4, (8aS)-5-(5-ethyl-6-fluoro-1H-benzo[f]indazol-4-yl)-4-fluoro-2-(((S,Z)-2-(fluoromethylene)tetrahydro-1H-pyrrolizin-7a(5H)-yl)methoxy)-8a,9,12,13-tetrahydro-8H,11H-7,10-dioxa-1,3,6,13a-tetraazanaphtho[1,8-ab]heptalene], the IC50 in assay [1] was 1 nM; in assay [2] it was less than 0.69 nM; in assay [3] (Homo sapiens, SW-620, 2 h), less than 1.5 nM.
For `F/C=C1\CN2CCC[C@@]2(COc2nc3c4c(nc(-c5c(C6(F)CC6)c(Cl)cc6[nH]ncc56)c(F)c4n2)OC[C@@H]2COCCCN32)C1` [Ex-5, (8aS)-5-(6-chloro-5-(1-fluorocyclopropyl)-1H-indazol-4-yl)-4-fluoro-2-(((S,Z)-2-(fluoromethylene)tetrahydro-1H-pyrrolizin-7a(5H)-yl)methoxy)-8a,9,12,13-tetrahydro-8H,11H-7,10-dioxa-1,3,6,13a-tetraazanaphtho[1,8-ab]heptalene], in that order: 0.97 nM, 0.83 nM and 1.3 nM.
`CCc1c(F)ccc2cc3[nH]nc(C)c3c(-c3nc4c5c(nc(OC[C@@]67CCCN6C[C@H](F)C7)nc5c3F)N3CCCOC[C@H]3CO4)c12` [Ex-6, (8aS)-5-(5-ethyl-6-fluoro-3-methyl-1H-benzo[f]indazol-4-yl)-4-fluoro-2-(((2R,7aS)-2-fluorotetrahydro-1H-pyrrolizin-7a(5H)-yl)methoxy)-8a,9,12,13-tetrahydro-8H,11H-7,10-dioxa-1,3,6,13a-tetraazanaphtho[1,8-ab]heptalene]: the half-maximal inhibitory concentration (IC50) worked out at 1.8 nM in assay [1]; 1 nM in assay [2]; 3.4 nM in assay [3] (Homo sapiens, SW-620, 2 h).
As to `CCc1c(F)ccc2cc3[nH]nc(C)c3c(-c3nc4c5c(nc(OC[C@@]67CCCN6C/C(=C\F)C7)nc5c3F)N3CCCOC[C@H]3CO4)c12` [Ex-7, (8aS)-5-(5-ethyl-6-fluoro-3-methyl-1H-benzo[f]indazol-4-yl)-4-fluoro-2-(((S,Z)-2-(fluoromethylene)tetrahydro-1H-pyrrolizin-7a(5H)-yl)methoxy)-8a,9,12,13-tetrahydro-8H,11H-7,10-dioxa-1,3,6,13a-tetraazanaphtho[1,8-ab]heptalene], the figures for the IC50 in assay [1], in assay [2] and in assay [3] (2 h) were 2.8 nM, 1.3 nM and 2.5 nM, respectively.
